In patent US20080113016A1, “Method for Prevention or Treatment of Inflammatory Disease” (priority 2004, published 2008):
Entries after “also recorded” stand apart in the source; their conditions may differ. Read-outs that look alike come from different tables or passages of the source. Marks after values point to notes of the source that are not given here.

Columns and labels:
[1] = test system: rats with adjuvant arthritis; experiment: Adjuvant arthritis: histologic joint damage, semiquantitative score; assay type: in vivo, rat
Experimental: Rats were immunized with CFA on day 0 and treated daily with intrathecal SB203580 (8 μg) or intrathecal saline beginning on day 8-20. Left panel is vehicle and right panel is SB203580. […] Representative sections are shown illustrating decreased erosions, cartilage damage and synovial inflammation in the treated group.
Adjuvant arthritis. Male Lewis rats (150-200 g) were immunized at the base of the tail with 0.1 ml of complete Freund's adjuvant (CFA) on day 0. Drug (IT or subcutaneous SB203580 or IT vehicle) treatment started on day 8 and continued on a daily basis until day 20. Clinical signs of arthritis generally begin on day 10, and paw swelling was determined every second day by water displacement plethysmometry. […] Prior to daily drug delivery, rats were individually assessed for ability to walk and bear weight on their hind paws. On the day of sacrifice, a probe with a 24 gm bending force was applied to the lateral ankle of each hind paw for 4 s. Animals were graded (0/1) on whether they vocalized. […]

[2] = test system: rats with adjuvant arthritis; experiment: Adjuvant arthritis: paw swelling by water displacement plethysmometry; assay type: in vivo, rat
Experimental: […] Paw swelling was measured by water displacement plethysmometry.
(§1) Intrathecal (IT) catherization of rats. All animals were handled in accordance with USDA guidelines, and all procedures have been carefully reviewed and approved by the institutional animal subjects committee. Rats (200-300 g) were housed for at least one week before use. Isoflurane anesthesia was used for all surgical procedures. Animals were implanted with an intrathecal (IT) catheter modified from the method previously described. Yaksh, et al. Physiol. Behav. 17:1031-6, 1976. After a six day recovery period, all animals except those that appeared to have sensory or motor abnormalities (less than 5% of the total number) were used for experiments. For IT administration, 10 μl of drug or vehicle followed by 10 μl of isotonic saline was injected through the catheter.
(§2) Adjuvant arthritis. Male Lewis rats (150-200 g) were immunized at the base of the tail with 0.1 ml of complete Freund's adjuvant (CFA) on day 0. […] Clinical signs of arthritis generally begin on day 10, and paw swelling was determined every second day by water displacement plethysmometry. […] Prior to daily drug delivery, rats were individually assessed for ability to walk and bear weight on their hind paws. On the day of sacrifice, a probe with a 24 gm bending force was applied to the lateral ankle of each hind paw for 4 s. Animals were graded (0/1) on whether they vocalized. Roentgenograms were obtained of the hind paws to assess bone changes using a semi-quantitative scoring system (demineralization (0 to 2+), ankle and mid-foot erosions (0 to 2+), calcaneal erosion (0 to 1+), heterotopic bone formation (0 to 1+) (maximum possible score=6). Paws were fixed in formalin and decalcified for 2-3 days. Sections from paraffin embedded tissue were stained with hematoxylin and eosin. A synovial inflammation score was determined using a semi-quantitative scale that measures synovial inflammation (0-2+), cartilage integrity (0-2+), bone erosions (0-2+), marrow infiltration (0-2+), proteoglycans loss (0-2+ in safranin 0 stained sections) and extra-articular inflammation (0-2+) (maximum score 12). Subjective assessments were made by an investigator blinded to the drug treatment.

[3] = test system: synovial IL-1, IL-6 and MMP3 gene expression; experiment: Adjuvant arthritis: joint gene expression by quantitative real time PCR; assay type: in vivo, rat; details: intrathecal 8 μg daily day 8-20 vs IT saline, hind paws
Experimental: Rats were immunized with CFA on day 0 and treated daily with intrathecal SB203580 (8 μg) or intrathecal saline beginning on day 8-20. (A) Quantitative real time PCR was performed on the hind paws. Normal rat joints are also shown as a control.
Q-PCR. Ankle joints were excised and trimmed of skin. The tissue was then pulverized and RNA extracted using RNA-STAT-60 and standard techniques. The RNA was reversed transcribed into cDNA using random hexamer primers. TaqMan PCR amplification reactions were carried out in reaction volumes of 25 μl in MicroAmp Optical Plates and MicroAmp Optical Caps using the TaqMan Universal Master Mix with a Perkin Elmer 5700 thermal cycler. Each sample was analyzed in triplicate using 50 ng of cDNA in the reaction. Thermal cycling was initiated with a 2 min incubation at 50° C., followed by 10 min at 95° C. to activate the AmpliTaq polymerase and then 40 cycles of 95° C. for 15 s/60° C. for 1 min. GADPH was used as a loading control for in each sample. The standard curve method was used for quantification as previously described. Boyle, et al. Arthritis Res. Ther. 5:R352-360, 2003.

[4] = test system: rats with adjuvant arthritis; experiment: Adjuvant arthritis: radiographic joint damage, semiquantitative score; assay type: in vivo, rat
Experimental: as §2

[5] = test system: rats with adjuvant arthritis; experiment: Adjuvant arthritis: behavioral pain (vocalization to 24 gm ankle pressure); assay type: in vivo, rat; details: 24 gm bending force to lateral ankle for 4 s on day 20
Source text: The effect of IT SB203580 on the clinical manifestations of adjuvant arthritis was examined. […] Paw swelling was inversely correlated with behavioral analysis as determined by weight bearing in hind limbs.
as §1
Adjuvant arthritis. Male Lewis rats (150-200 g) were immunized at the base of the tail with 0.1 ml of complete Freund's adjuvant (CFA) on day 0. […] Clinical signs of arthritis generally begin on day 10, and paw swelling was determined every second day by water displacement plethysmometry. […] Prior to daily drug delivery, rats were individually assessed for ability to walk and bear weight on their hind paws. […]

spinal nerve ligation = details: administered intrathecally before spinal nerve ligation, cited from earlier work
[6] = intrathecal etanercept 100 or 300 μg q.o.d.

Compound | Histologic joint damage and inflammation (semiquantitative score) ([1]; intrathecal 8 μg daily day 8-20 vs IT saline) | Leukocyte infiltration into synovium ([1]; intrathecal catheter administration) | Paw swelling ([2]; intrathecal 8 μg daily day 8-20, compared with IT saline or same dose subcutaneously) | Effect in adjuvant arthritis (paw swelling, synovial infiltration, joint destruction) ([2]; same dose (8 μg) delivered systemically (subcutaneous)) | Synovial IL-1 gene expression [3] | Synovial IL-6 gene expression [3] | MMP3 gene expression ([3]; p<0.05) | Radiographic joint damage (bone erosions, cartilage loss, demineralization) ([4]; intrathecal 8 μg daily day 8-20, p<0.05) | Radiographic joint damage ([4]; systemic (subcutaneous) treatment, same dose 8 μg) | Positive vocalization (animals that vocalize / total number) ([5]; intrathecal (IT) SB203580 8 μg daily day 8-20) | Positive vocalization (animals that vocalize / total number) ([5]; subcutaneous (SC) SB203580 8 μg daily day 8-20) | Allodynia (spinal nerve ligation) | Increase in spinal cord P-p38 / p38 activation (spinal nerve ligation) | Increase in spinal cord P-p38 / p38 activation (spinal nerve ligation; listed as etanercept) | Paw swelling [2, 6] | Paw swelling ([2]; subcutaneous 50 μg every other day from day 1, day 20) [mL] | Paw swelling ([2]; subcutaneous 100 μg every other day from day 1, day 20) [mL] | Paw swelling ([2]; subcutaneous 300 μg every other day from day 1, day 20) [mL] | Paw swelling on day 20 ([2]; systemic treatment with the same doses as intrathecal) | Radiographic evidence of joint destruction [4, 6]
C[S+]([O-])c1ccc(-c2nc(-c3ccncc3)c(-c3ccc(F)cc3)[nH]2)cc1 (centres unmarked) [SB203580] | significantly decreased | decreased | significantly decreased; also recorded: markedly suppressed | no effect | significantly decreased | significantly decreased | significantly decreased | significantly decreased | no effect | 0/6** | 4/6 | – | – | – | – | – | – | – | – | –
Etanercept | – | – | – | – | – | – | – | – | – | – | – | inhibits | blocks | inhibits | significantly decreased | 1.51 ± 0.20 | 1.75 ± 0.18 | 1.67 ± 0.16 | no effect | significantly decreased
